Data published in patent US7323303B2, “Modified β-lactamases and uses thereof” (priority 2003, dated 2008).

Assays:
E166Cf enzyme [1] = molecular target: T1, E166Cf enzyme (Bacillus cereus, UniProt P00809, E185C); test: Time-resolved fluorescence of E166Cf enzyme with penicillins and cephalosporins; assay type: biochemical; conditions: E166Cf 1.2×10^−7 M, 50 mM phosphate buffer pH 7.0; up to one hour
T1 construct: made in house; host or cells: B. subtilis 1A304 (φ105MU331); then labelled chemically
T1 sequence (P00809 28-306 E185C): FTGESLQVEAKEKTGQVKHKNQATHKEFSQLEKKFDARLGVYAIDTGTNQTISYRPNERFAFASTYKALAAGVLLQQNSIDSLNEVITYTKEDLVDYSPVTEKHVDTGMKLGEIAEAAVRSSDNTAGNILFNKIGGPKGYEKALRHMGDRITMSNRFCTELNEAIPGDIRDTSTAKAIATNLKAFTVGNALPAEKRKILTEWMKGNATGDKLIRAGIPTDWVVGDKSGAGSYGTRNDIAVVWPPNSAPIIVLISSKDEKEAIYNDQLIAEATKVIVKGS
Experimental: Fluorescence measurements of the E166Cf enzyme in the presence of penicillin G, penicillin V, ampicillin, cefuroxime, cefoxitin and moxalactam were performed on a Perkin Elmer LS50B spectrofluorometer. For time-resolved fluorescence measurement, excitation and emission wavelengths were set at 494 and 515 nm respectively. Both excitation and emission slit widths were set at 5 nm. All fluorescence measurements were performed at room temperature.
With penicillin G as substrate, the fluorescence signal of the E166Cf enzyme (1.2×10^−7 M) at 515 nm in 50 mM phosphate buffer (pH 7.0) increases as a function of the antibiotic concentration (FIG. 4). The time-resolved fluorescence signals of the E166Cf enzyme at 515 nm were also measured with various concentrations of penicillin G (FIG. 5). At low antibiotic concentration (1.0×10^−7 and 1.0×10^−6 M), the fluorescence intensity of the E166Cf enzyme increases gradually and then declines. At high antibiotic concentration (1.0×10^−5 and 1.0×10^−4 M), the fluorescence signal increases instantaneously and levels off to a plateau. The fluorescence signal stays at the plateau for a certain length of time and then declines afterwards. Similar results were obtained with penicillin V and ampicillin (FIGS. 6 and 7).
With cefuroxime, cefoxitin and moxalactam as substrates, the fluorescence intensities of the E166Cf enzyme (1.2×10^−7 M) at 515 nm in 50 mM phosphate buffer (pH 7.0) also increase as a function of antibiotic concentration (FIGS. 8 to 10).
(§1) At high substrate concentration (1.0×10^−5 and 1.0×10^−4 M), the penicillin substrates rapidly occupy the active sites to form the ES complexes, thus switching on the fluorescence of the fluorescein labels instantaneously. […] This can be verified by the fact that the ‘plateau time’ (8 and 22 min for 1.0×10^−5 and 1.0×10^−4 M penicillin G respectively) is consistent with the ‘substrate hydrolysis time’ determined by spectrophotometric assays (7 and 20 min for 1.0×10^−5 and 1.0×10^−4 M penicillin G respectively). When most of the penicillin substrates have been hydrolyzed to carboxylic acids, the fluorescence signal of the labeled enzyme will decline subsequently.

B. cereus β-lactamase II = molecular target: T2, B. cereus β-lactamase II (Bacillus cereus, UniProt P04190); test: Drug screening: E166Cf fluorescence in presence of bacterial β-lactamase culture; assay type: biochemical; parameters: key: −: Decline in fluorescence signal (presence of beta-lactam hydrolysis); +: No decline in fluorescence signal (absence of beta-lactam hydrolysis); conditions: antibiotic 1.0×10^−4 M, E166Cf 1.2×10^−7 M
T2 construct: made in house; host or cells: B. subtilis 1A304 (φ105MU331); whole culture used, not purified
Experimental: (§2) The use of the E166Cf enzyme in screening bacterial β-lactamases against various β-lactam antibiotics was investigated. The principle of our method is that when both E166Cf and bacterial β-lactamase are incubated with ‘β-lactamase-unstable’ antibiotics, the fluorescence of the E166Cf enzyme will be suppressed because of the greater catalytic efficiency of the bacterial enzyme. In contrast, when bacterial β-lactamases are screened against ‘β-lactamase-resistant’ antibiotics, the fluorescence of the E166Cf enzyme will be enhanced because of the poor hydrolytic activity of the bacterial enzyme. Thus, any β-lactam antibiotic that causes the labeled enzyme to increase its fluorescence intensity in the presence of bacterial β-lactamases can be used in clinical treatments.
(§3) The β-lactamase II, penPC β-lactamase and penP β-lactamase were expressed in B. subtilis 1A304 (φ105MU331). These enzymes were prepared according to the procedures described previously (Reference 7: Thomwell, S. J. East, A. K., Errington, J. An efficient expression and secretion system based on Bacillus subtilis phage phi 105 and its uses for the production for B. cereus β-lactamase I. (1993) Gene 133, 47-53) with slight modifications. A bacterial strain was streaked on an agar plate containing 5 μg/ml chloramphenicol, and the plate was incubated at 37° C. for 24 h. A single bacterial colony from the agar plate was inoculated into 100 ml of sterilized BHY medium (37 g/l brain heart infusion and 5 g/l yeast extract) which was then incubated at 37° C. with shaking at 300 rpm overnight. About 7 ml of overnight inoculum was added to a baffled conical flask containing 100 ml of sterilized BHY medium. The inoculated medium was incubated at 37° C. with shaking at 300 rpm. When the optical density of the bacterial culture at 600 nm reached 3.5 to 4.0, the bacterial culture was heated in a water bath at 51° C. for 5 min. Afterwards, the bacterial culture was incubated at 37° C. with shaking at 300 rpm for a further 6 h. The bacterial culture was then harvested and stored at −20° C.
(§4) Fluorescence measurements of the E166Cf enzyme in the presence of bacterial cultures and β-lactam antibiotics were performed on a FLUOstar microplate reader (BMG Labtechnologies) equipped with two sample injectors. Excitation and emission filters of 485 and 520 nm respectively were used. For B. cereus penPC β-lactamase, B. licheniformis penP β-lactamase and B. cereus β-lactamase II, the labeled enzymes were mixed with the bacterial cultures, and the mixtures were made up to 300 μl with 50 mM phosphate buffer (pH 7.0) in a 96-well microtiter plate (Corning Costar). For the purpose of comparison, B. subtilis cultures, which produced no β-lactamase, were set up as negative controls. For E. coli. TEM-1 β-lactamase, the labeled enzymes were mixed with the bacterial cultures without dilution. E. coli. cultures, which produced no β-lactamase, were set up as negative controls for comparison. The antibiotics were then added to the bacterial samples by the injectors.
(§5) The results from the time-resolved fluorescence measurements of the labeled enzyme (1.2×10^−7 M) in the presence of various bacterial cultures and β-lactam antibiotics (1.0×10^−4 M) are shown in FIGS. 23 to 26.

[2] = molecular target: T3, B. licheniformis penP β-lactamase (Bacillus licheniformis, UniProt P00808); test: as above; assay type: biochemical; parameters: key: −: Decline in fluorescence signal (presence of beta-lactam hydrolysis); +: No decline in fluorescence signal (absence of beta-lactam hydrolysis); conditions: antibiotic 1.0×10^−4 M, E166Cf 1.2×10^−7 M
T3 construct: made in house; host or cells: B. subtilis 1A304 (φ105MU331); whole culture used, not purified
Experimental: as §2, §3, §4, §5

[3] = molecular target: T4, B. cereus penPC β-lactamase (Bacillus cereus, UniProt P00809); test: as above; assay type: biochemical; parameters: key: −: Decline in fluorescence signal (presence of beta-lactam hydrolysis); +: No decline in fluorescence signal (absence of beta-lactam hydrolysis); conditions: antibiotic 1.0×10^−4 M, E166Cf 1.2×10^−7 M
T4 construct: made in house; host or cells: B. subtilis 1A304 (φ105MU331); whole culture used, not purified
Experimental: as §2, §3, §4, §5

[4] = molecular target: T5, E. coli TEM-1 β-lactamase (Escherichia coli, UniProt P62593); test: as above; assay type: biochemical; parameters: key: −: Decline in fluorescence signal (presence of beta-lactam hydrolysis); +: No decline in fluorescence signal (absence of beta-lactam hydrolysis); conditions: E. coli TEM-1 culture, undiluted; antibiotic 1.0×10^−4 M; E166Cf 1.2×10^−7 M
T5 construct: made in house; host or cells: E. coli BL21(DE3); whole overnight culture used undiluted, not purified
Experimental: as §2
The TEM-1 β-lactamase was expressed in E. coli. BL21(DE3). Preparation of the TEM-1 β-lactamase was performed as follows. A bacterial strain was streaked on an agar plate containing 100 μg/ml ampicillin, and the plate was incubated at 37° C. for 24 h. A single bacterial colony from the plate was inoculated into 100 ml of sterilized LB broth (28 g/l) which was then incubated at 37° C. with shaking at 280 rpm overnight. After overnight incubation, the bacterial culture was harvested and stored at −20° C.
as §4, §5

E166Cf enzyme [5] = molecular target: T1, E166Cf enzyme; test: Circular dichroism assay of antibiotic hydrolysis by E166Cf; assay type: biochemical; conditions: 1.0×10^−4 M antibiotic, E166Cf 1.2×10^−7 M, one hour incubation
Excerpt: The absence of a declining fluorescence signal for cefuroxime, cefoxitin and moxalactam can be ascribed to the poor hydrolytic activities of the E166Cf enzyme towards these antibiotics (very low k2 and/or k3) (FIG. 14). As a result, the cephalosporin substrates stay in the active sites. To verify this, the activities of the labeled enzyme with cefuroxime, cefoxitin and moxalactam as substrates were monitored by circular dichroism (CD) spectropolarimetry. […] Therefore, by measuring the CD signals of cefuroxime, cefoxitin and moxalactam (1.0×10^−4 M) at 258, 264 and 265 nm respectively as a function of time in the presence of E166Cf enzyme (1.2×10^−7 M), the hydrolytic activities of the labeled enzyme towards these antibiotics can be monitored.

[6] = system: CC1(C)S[C@@H]2[C@H](NC(=O)[C@H](N)c3ccccc3)C(=O)N2[C@H]1C(=O)O; test: Spectrophotometric substrate hydrolysis, steady-state kinetics; assay type: biochemical, Bacillus cereus; conditions: other: Wild-type, 50 mM potassium phosphate buffer pH 7.0, 20° C.
Experimental: (§6) The hydrolytic activities of the wild-type β-lactamase I, E166C and E166Cf mutants towards penicillin G, penicillin V and ampicillin (Sigma) were monitored by the spectrophotometric method. The spectrophotometric measurements were performed on a Perkin Elmer Lambda Bio20 UV/Vis spectrometer. Substrate hydrolysis was monitored at a fixed wavelength: 235 nm for ampicillin, 232 nm for penicillin G and penicillin V. The initial rate of substrate hydrolysis occurring within 5 min was determined in duplicate at each of 6 different substrate concentrations in 50 mM potassium phosphate buffer (pH 7.0) at 20° C. The initial rates determined were then treated as described in Reference 5 to calculate the Michaelis constants (Km) and turnover numbers (kcat) using non-linear regression analysis (equation 1):
(§7) [formula] where v is the initial rate of substrate hydrolysis, Vmax the maximum rate of reaction, [S] the initial substrate concentration, Km the Michaelis constant and kcat=Vmax/[Enzyme].
(§8) The measured steady-state kinetic parameters for hydrolysis of penicillin G, penicillin V and ampicillin by the wild-type β-lactamase I, E166C and E166Cf mutants are summarized in Table 1.

E166Cf enzyme [7] = molecular target: T1, E166Cf enzyme; test: Time-resolved fluorescence of E166Cf enzyme with β-lactamase inhibitors; assay type: biochemical; conditions: 1.0×10^−3 M inhibitor; E166Cf 1.2×10^−7 M, 50 mM phosphate buffer pH 7.0
Experimental: Time-resolved fluorescence measurements of the E166Cf enzyme in the presence of sulbactam and clavulanate were performed on a Perkin Elmer LS50B spectrofluorometer. The excitation and emission wavelengths were set at 494 and 515 nm respectively. Both excitation and emission slit widths were set at 5 nm. All fluorescence measurements were performed at room temperature.
The fluorescence signals of the labeled enzyme (1.2×10^−7 M) obtained with sulbactam (1.0×10^−4 M) and clavulanate (1.0×10^−3 M) in 50 mM phosphate buffer (pH 7.0) are entirely different (FIGS. 18 and 19).

[8] = molecular target: T6, E166Cf (fluorescein-labeled E166C mutant of β-lactamase I) (Bacillus cereus, UniProt P00809, E185C); test: Spectrophotometric substrate hydrolysis, steady-state kinetics; assay type: biochemical; conditions: E166Cf; 50 mM potassium phosphate buffer pH 7.0, 20° C.
T6 construct: made in house; host or cells: B. subtilis 1A304 (φ105MU331); then labelled chemically
T6 sequence (P00809 28-306 E185C): T1 sequence (P00809 28-306 E185C)
Experimental: as §6, §7, §8, §1

[9] = molecular target: T7, E166C mutant of β-lactamase I (Bacillus cereus, UniProt P00809, E185C); test: as above; assay type: biochemical; conditions: 50 mM potassium phosphate buffer pH 7.0, 20° C.
T7 construct: made in house; host or cells: B. subtilis 1A304 (φ105MU331)
T7 sequence (P00809 28-306 E185C): T1 sequence (P00809 28-306 E185C)
Experimental: as §6, §7, §8

wild-type β-lactamase I = molecular target: T8, wild-type β-lactamase I (Bacillus cereus, UniProt P00809); test: as above; assay type: biochemical; conditions: 50 mM potassium phosphate buffer pH 7.0, 20° C.
T8 construct: made in house; host or cells: B. subtilis 1A304 (φ105MU331)
Experimental: as §6, §7, §8

T4 sequence (P00809 28-306): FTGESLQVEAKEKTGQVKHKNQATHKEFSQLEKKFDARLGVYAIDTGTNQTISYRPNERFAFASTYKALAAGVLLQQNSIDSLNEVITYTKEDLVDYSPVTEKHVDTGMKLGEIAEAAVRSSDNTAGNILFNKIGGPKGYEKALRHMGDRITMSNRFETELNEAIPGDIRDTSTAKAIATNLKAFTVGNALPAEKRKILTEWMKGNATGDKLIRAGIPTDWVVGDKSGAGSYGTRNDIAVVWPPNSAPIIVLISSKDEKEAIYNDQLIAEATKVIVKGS
T5 sequence (P62593 24-286 limits assumed): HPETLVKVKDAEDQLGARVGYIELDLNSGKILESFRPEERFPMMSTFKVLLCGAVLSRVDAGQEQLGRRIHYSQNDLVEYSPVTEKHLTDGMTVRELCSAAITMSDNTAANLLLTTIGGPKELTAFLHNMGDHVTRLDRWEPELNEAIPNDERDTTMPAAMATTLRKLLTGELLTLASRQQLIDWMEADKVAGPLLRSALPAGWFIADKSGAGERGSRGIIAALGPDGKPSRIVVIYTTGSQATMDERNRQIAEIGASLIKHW
T3 sequence (P00808 27-307): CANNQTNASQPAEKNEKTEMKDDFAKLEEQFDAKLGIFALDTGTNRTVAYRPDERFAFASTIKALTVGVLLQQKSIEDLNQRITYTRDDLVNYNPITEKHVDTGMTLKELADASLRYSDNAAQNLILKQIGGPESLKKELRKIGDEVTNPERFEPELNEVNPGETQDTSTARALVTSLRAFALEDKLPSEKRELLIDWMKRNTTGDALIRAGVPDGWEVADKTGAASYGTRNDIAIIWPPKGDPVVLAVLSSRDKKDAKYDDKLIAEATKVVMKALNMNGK
T2 sequence (P04190 31-257): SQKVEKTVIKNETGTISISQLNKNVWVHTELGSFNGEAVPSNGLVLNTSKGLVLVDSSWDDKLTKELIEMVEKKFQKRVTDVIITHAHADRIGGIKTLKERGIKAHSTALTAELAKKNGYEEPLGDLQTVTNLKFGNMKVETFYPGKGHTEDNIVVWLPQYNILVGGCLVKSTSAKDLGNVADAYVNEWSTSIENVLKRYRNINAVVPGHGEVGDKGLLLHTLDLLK
T8 sequence (P00809 28-306): as the sequence (P00809 28-306) above

| Compound | time course of E166Cf fluorescence signal at 515 nm (E166Cf enzyme [1]) | fluorescence signal of E166Cf (beta-lactam hydrolysis) (B. cereus β-lactamase II) | fluorescence signal of E166Cf (beta-lactam hydrolysis) [2] | fluorescence signal of E166Cf (beta-lactam hydrolysis) [3] | fluorescence signal of E166Cf (beta-lactam hydrolysis) [4] | change in CD signal of antibiotic (hydrolysis by E166Cf) (E166Cf enzyme [5]) | also measured |
| --- | --- | --- | --- | --- | --- | --- | --- |
| CO[C@@]1(NC(=O)Cc2cccs2)C(=O)N2C(C(=O)O)=C(COC(N)=O)CS[C@@H]21 [Cefoxitin, cefoxitin] | no subsequent decline in intensity was observed | + | + | + | + | no significant changes in the CD signals |  |
| CO[C@@]1(NC(=O)C(C(=O)O)c2ccc(O)cc2)C(=O)N2C(C(=O)O)=C(CSc3nnnn3C)CO[C@@H]21 (some centres unmarked) [Moxalactam, moxalactam] | no subsequent decline in intensity was observed | + | + | + | + | no significant changes in the CD signals |  |
| wild-type β-lactamase I (Bacillus cereus) |  |  |  |  |  |  | Km [6]: 142 ± 8 µM; kcat [6]: 5210 ± 275 s⁻¹; kcat/Km [6]: 3.7e+07 ± 4e+06 M⁻¹ s⁻¹ |
| CO/N=C(\C(=O)N[C@@H]1C(=O)N2C(C(=O)O)=C(COC(N)=O)CS[C@H]12)c1ccco1 [Cefuroxime, cefuroxime] | no subsequent decline in intensity was observed | − | − | + | + | no significant changes in the CD signals |  |
| O=C(O)[C@H]1/C(=C/CO)O[C@@H]2CC(=O)N21 [clavulanate] |  |  |  |  |  |  | time course of E166Cf fluorescence signal at 515 nm (E166Cf enzyme [7]): instantaneous increase in fluorescence signal which declines rapidly within 200 s and then levels off to a plateau |
| CC1(C)S[C@@H]2[C@H](NC(=O)COc3ccccc3)C(=O)N2[C@H]1C(=O)O [Penicillin V, penicillin V] |  | − | − | − | − |  | Km [8]: 117 ± 10 µM; kcat [8]: 2.97 ± 0.06 s⁻¹; Km [9]: 71 ± 6 µM; kcat [9]: 1.53 ± 0.03 s⁻¹; Km (wild-type β-lactamase I): 52 ± 4 µM; kcat (wild-type β-lactamase I): 2109 ± 4 s⁻¹ |
